Test results published in article PMC5352194, “Toward the development of a novel non-RGD cyclic peptide drug conjugate for treatment of human metastatic melanoma” (Oncotarget, 2016).

What was measured:
[1] = test system: WM-266-4 human metastatic melanoma cells; assay: Cell survival test (XTT assay), WM-266-4; assay type: cell-based; details: WM-266-4 cells, 10μM, 48 hours, three repeats in quadruplicates
Method: (§1) The cytotoxicity of the compounds was determined by measuring the mitochondrial enzyme activity, using a commercial XTT assay kit (#20-30-100, Biological Industries, Beit-Haemek, Israel) according to the manufacturer protocol using 2×10^3 cells/well of a 96–well plate. The cells were cultured for 24 hours in growth medium followed by additional 48 hours with growth medium supplemented with different concentrations of the tested substances. The absorbance of the XTT reagent was measured with a TECAN Infinite M200 ELISA reader. The absorbencies were normalized to the absorbance of cells grown in medium and solvent. All the tests were repeated three times in quadruplicates.

[2] = test system: non-malignant HEK293 cells; assay: Cell survival test (XTT assay), HEK293; assay type: cell-based, human; details: 48 hours, XTT (experiment repeated as for WM-266-4, 10μM), three repeats in quadruplicates
Method: as §1

WM-266-4 cells = assay: Confocal analysis of intracellular localization of CPT in live cells; assay type: cell-based, human; details: live WM-266-4 cells, 10 μM, 1 h, CPT fluorescence
From the text: Fluorescent images of ALOS4-FITC were acquired by Photometrics CoolSNAP HQ2 camera mounted on an Olympus iX81 fluorescent microscope. For confocal microscopy analysis the cells were transfected with a plasmid expressing GFP-fused histone H1E (pH1E-GFP) using Xfect polymer (ST0152, Clontech Laboratories, CA, USA) and were stained with CytoPainter Lysosomal Staining Kit - Red Fluorescence (ab112137, Abcam, Cambridge, MA, USA). Images were collected with a Zeiss LSM700 confocal microscope.

[3] = Chemo-stability (lactone ring opening), LC-MS; assay type: physicochemical; details: chemical stability, 0.1 mM in PBS pH 7.4, 37°C, 5 h incubation, samples injected twice
Method: Electron spray mass spectra (ESI-MS) were obtained using an Autoflex III smart-beam (MALDI, Bruker), Q-TOF micro (Waters) or an LCQ Fleet™ ion trap mass spectrometer (Finnigan/Thermo). HPLC/LC-MS analyses were made using Agilent infinity 1260 connected to Agilent quadruple LC-MS 6120 series equipped with ZORBAX SB-C18, 50 × 2.1 mm, 1.8 μm column. In all cases the eluent solvents were A (0.1% TFA in H2O) and B (0.1% TFA in ACN) and the elution gradient profile was: 100% A for first 4 min, 8 min (from min 4 to min 12) during which it reached 100% B, 4 min (from min 12 to min 16) of 100% B, 2 min (from min 16 to min 18) during which it returned back to A, and 2 min (from min 18 to min 20) of 100% A. The UV detection was at 254 nm. Column temperature was kept at 50°C. The flow rate was of 0.4 ml/min. The MS fragmentor was tuned on 100V on positive or negative mode.
0.1 mM CPT and ALOS4-CPT were incubated in acetate buffer at pH 4.5 and in PBS at pH 7.4 at 37°C. During the incubation period (24h - 144h), aliquots were removed at different time intervals, filtered and analyzed by LC-MS.

γH2A.X in HEK293 cells = assay: Western blot, γH2A.X (DSBs) in HEK293 cells; assay type: cell-based, human; details: 3 hours
Method: (§2) The cells were scraped and washed with PBS buffer. Cell lysates were prepared by sonication in 1 X SDS sample buffer supplemented with protease inhibitor cocktail (MBS539134, Millipore) and boiling for 10 min. The proteins were separated by SDS-PAGE and transferred to nitrocellulose membranes. The following antibodies were used for western blotting: active caspase 3 (C8487, Sigma), γH2AX (05-636, Millipore) and histone H3 (05-928, Millipore). The band intensities in a representative experiment were quantified by the ImageJ program.

[4] = test system: active caspase 3 in HEK293 cells; assay: Western blot, active caspase 3 in HEK293 cells; assay type: cell-based, human
Method: as §2

Compound | Cell survival, % of the control cells [1] | Cell survival, % of the control cells [2] | Intracellular localization of CPT (WM-266-4 cells) | CPT that underwent lactone ring opening to carboxylate [3] | Increase in the levels of γH2A.X (γH2A.X in HEK293 cells) | Increase in the levels of active caspase 3 ([4]; 3 hours) | Increase in the levels of active caspase 3 ([4]; 24 hours)
CN(C)CCN1C(=O)c2cccc3cc(N)cc(c23)C1=O [AM, Amonafide] | 48% | 27% |  |  |  |  | 
COc1cc([C@@H]2c3[nH]c4ccccc4c3C[C@H]3COC(=O)N32)cc(OC)c1O [AZA, Azatoxin] | 68% | 44% |  |  |  |  | 
CC[C@@]1(O)C(=O)OCc2c1cc1n(c2=O)Cc2cc3ccccc3nc2-1 [CPT, Camptothecin] | 65% | 16% | accumulation of CPT inside the nucleus and to some less degree in the lysosome | ~40% | ~2 fold | ~2 fold | more than 5 fold
